Assays:
[1] = 101.33 kPa, Liquid; for speed of sound: Frequency=2 MHz, Linear variable-path acoustic interferometer; for mass density: Vibrating tube method
[2] = xn = mol fraction of the nth substance listed; settings: 101 kPa, Liquid; for speed of sound: Frequency=2 MHz, Linear variable-path acoustic interferometer; for mass density: Vibrating tube method

Nc1ccccc1Cl [2-chlorobenzeneamine]
[1]
Settings	mass density [kg/m3]	speed of sound [m/s]
303.15 K	1202.38	1468
308.15 K	1197.56	–
313.15 K	1192.97	1437
318.15 K	1187.92	–
323.15 K	1183.26	–

Nc1ccccc1Cl [2-chlorobenzeneamine] + OCc1ccccc1
[2]
Settings	mass density, 303.15 K [kg/m3]	mass density, 308.15 K [kg/m3]	mass density, 313.15 K [kg/m3]	mass density, 318.15 K [kg/m3]	mass density, 323.15 K [kg/m3]	speed of sound, 303.15 K [m/s]	speed of sound, 313.15 K [m/s]
x2 = 0.1018	1188.36	1183.05	1178.05	1172.74	1167.93	1470.9	1440.8
x2 = 0.2031	1173.95	1168.26	1162.88	1157.37	1152.55	1474.4	1445.4
x2 = 0.3041	1158.94	1153	1147.35	1141.76	1136.87	1478	1450.2
x2 = 0.4047	1143.31	1137.27	1131.48	1125.89	1121.03	1482.1	1455
x2 = 0.5049	1126.98	1121.04	1115.21	1109.7	1104.91	1486.4	1459.9
x2 = 0.6047	1110.07	1104.31	1098.62	1093.31	1088.6	1490.9	1464.9
x2 = 0.7041	1092.58	1087.09	1081.73	1076.67	1072.12	1495.6	1470.1
x2 = 0.8031	1074.51	1069.49	1064.51	1059.84	1055.47	1500.6	1475.4
x2 = 0.9017	1056	1051.53	1047	1042.77	1038.7	1506	1481
